Experimental findings from the OPERA property sets (Mansouri et al. 2018) are described below.

In the case of `CCCCOc1cccc(N2C(N)=NC(N)=NC2(C)C)c1`, the log partition coefficient (logP) (in general, the decadic logarithm of the partition coefficient of the neutral form, usually between octanol and water) came to 2.03.
On to `CNC(=O)Oc1cc(C)cc(C(C)(C)C)c1`, for which the logP worked out at 3.35.
The same measure for `CCCCCCOn1c(=O)[nH]c(C)c(Br)c1=O`: 2.48; for `O=c1cc(-c2ccc([N+](=O)[O-])o2)sc(=O)[nH]1`: 0.55; for `CCOC(=O)c1ccc(Cl)nn1`: 0.12.
For the molecule `Nc1ccc(OC(=O)CNC(=O)c2ccccc2)cc1`, the logP is 1.01.
Take `O=C1CN=C(c2ccccc2Cl)c2cc(Br)ccc2N1`: the logP was 3.3.
The same measure for `[Br-].c1ccc(C[n+]2cccc3ccccc32)cc1`: -0.82.
Molecule `O=C(Cn1ccnc1[N+](=O)[O-])NCCO` gave a lipophilicity (logP) of -1.34.
Take `COc1cc(Cc2cnc(N)nc2N)cc(OC)c1O`: the logP came out at 0.37.
On to `CNc1nc(N(C)C)nc(N(C)C)n1`, for which the log partition coefficient (logP) was determined as 1.83.
Turning to `CC(=O)Nc1cccc(OC(=O)CNC(=O)c2ccccc2)c1`, the logP turned out to be 1.7.
The same measure for `CCCCC(C)n1nnc2ccccc21` (stereo not drawn): 3.44.
In the case of `COc1ccccc1N=NN(C)C`, the logP turned out to be 2.34.
Molecule `O=C1CN=C(c2ccc(Cl)cc2)c2cc(Br)ccc2N1` had a logP of 3.78.
In turn, `COc1cc(Cc2cnc(N)nc2N)cc(OC)c1N` yielded a logP of 0.83.
For `CCCCCCN(SN(C)C(=O)ON=C(C)SC)C(=O)c1ccccc1`, the logP is 4.2.
Molecule `CCOP(=O)(OCC)SCS(=O)CC` (stereo not drawn) yielded a lipophilicity (logP) of 1.78.
`CN1CCN(C(=O)c2ccccc2)CC1` registered a logP of 0.35.
On to `COCc1c(OC)cc(Cc2cnc(N)nc2N)cc1OC`, for which the lipophilicity (logP) came out at 1.19.
Take `CCOc1ccc(OC(C)=O)cc1`: the logP worked out at 1.95.
In the case of `CC(C)C(=O)N(C)SN(C)C(=O)Oc1cccc2c1OC(C)(C)C2` it was 3.6; in that of `CC(C)OCC(O)Cn1ccnc1[N+](=O)[O-]` (stereo not drawn), 0.51; in that of `Clc1ccccc1NC1=NCCN1`, 1.36.
The same measure for `Cc1[nH]c(=O)n(OCC(C)C)c(=O)c1Br`: 1.23.
In the case of `COc1ccc(NS(=O)(=O)C(F)(F)F)cc1` it was 3; in that of `CCOP(=O)(OCC)Oc1ccc(SC)c(C)c1`, 3.28.
Regarding `OC1C(Cl)C(Cl)C(Cl)C(Cl)C1Cl` (stereo not drawn), the log partition coefficient (logP) was 2.54.
`CC(C)=CC1C(C(=O)OCc2ccc(C#N)cc2)C1(C)C` (stereo not drawn) showed a lipophilicity (logP) of 4.91.
In the case of `Cc1cc(=O)n2c(C)cccc2n1` it was 1.05.
In turn, `Cc1cc(NC(=O)N(C)C)cc(C)c1Br` gave a lipophilicity (logP) of 2.92.
Molecule `CCCCCCN(SN(C)C(=O)ON=C(C)SC)C(=O)N(C)C` showed a logP of 3.3.
The same measure for `CCCCCCNC(=O)NN`: 0.46; for `COc1ccccc1C(=O)N1CCN(C)CC1`: 0.29; for `Nc1ncnc2ccccc12`: 1.28.
`Cc1nnc(SCc2ccccc2)[nH]1` gave a logP of 1.68.
Molecule `O=S(=O)(Nc1ccc(C(F)(F)F)cc1)C(F)(F)F` returned a log partition coefficient (logP) of 4.47.
In the case of `C#CC(C)(C)N(C)C(C)C` it was 2.29; in that of `COC(=O)C(C#N)=NNc1cc(Cl)cc(Cl)c1`, 4.5.
The same measure for `CC1NC(=Nc2ncc([N+](=O)[O-])s2)OC1(C)C` (stereo not drawn): 1.88; for `CNC(=O)ON=Cc1ccc(Cl)c(Cl)c1`: 2.89; for `N=C(N)NC(=O)Nc1ccc(Cl)c(Cl)c1`: 2.39.
Regarding `O=S(=O)(Nc1cn[nH]c1)c1ccccc1`, the lipophilicity (logP) turned out to be 0.87.
`O=S(=O)(Nc1ccc(F)cc1)C(F)(F)F` registered a logP of 3.25.
Molecule `CCOc1ccc2nc(S(=O)(=O)NC)sc2c1` displayed a log partition coefficient (logP) of 2.59.
Molecule `CCCCCCCCCCCCCC[n+]1ccc(C)cc1C.[I-]` showed a log partition coefficient (logP) of 2.47.
The same measure for `CON(C)C(=O)Nc1cccc(F)c1`: 1.68; for `CN(C)CCc1cccs1`: 1.99; for `CCC(C)NP(=O)(OC)SC` (stereo not drawn): 0.95.
As for `c1ccc(-c2ncnc3ccccc23)cc1`, the logP was found to be 2.71.
In the case of `Cc1c([N+](=O)[O-])cc(C(N)=O)cc1[N+](=O)[O-]` it was 0.68; in that of `O=C(O)CCCCCCCN1C(=O)C=CC1=O`, 1.99.
Molecule `COc1ccccc1OC1OC(CO)C(O)C(O)C1O` (stereo not drawn) returned a lipophilicity (logP) of -1.04.
The same measure for `COc1cc(Cc2cnc(N)nc2N)cc(OC)c1C(=O)OC(C)C`: 1.72; for `COCC1=Nc2cc(Cl)ccc2S(=O)(=O)N1`: 1.12; for `COc1cc(Cc2cnc(N)nc2N)c(Cl)c(OC)c1`: 2.13.
Molecule `CN(C)CCN(Cc1ccc(C(C)(C)C)cc1)c1ccccc1` yielded a logP of 5.34.
The same measure for `CN(C)/N=N/c1ccccc1C(=O)NN`: 1.28.
Consider `S=C1CCCCCCCN1`, for which the logP worked out at 1.44.
`CCCCCNc1ccc(C(=O)OCCN(C)C)cc1`: the logP was 4.14.
`CCSCC1=Nc2cc(Cl)ccc2S(=O)(=O)N1`: the lipophilicity (logP) came to 2.26.
On to `CCCCSc1ccccc1OC(=O)NC`, for which the lipophilicity (logP) was 2.98.
In the case of `CC(C)Nc1ccccc1C(N)=O` it was 2.07; in that of `CCCNc1ccc(C(=O)OCCN(C)C)cc1`, 3.15; in that of `CCCCCCCCCCCCCC[n+]1cc(C)cc(C)c1.[I-]`, 2.9.
In the case of `NS(=O)(=O)c1nc2ccc(O)cc2s1`, the logP came to 1.13.
For `Cc1nnc(N)o1`, the logP was -0.92.
Consider `CN(C(=O)COc1ccccc1)c1ccccc1`, for which the log partition coefficient (logP) turned out to be 2.25.
In turn, `CCOc1cc(Cc2cnc(N)nc2N)cc(OC)c1C(C)(C)O` yielded a logP of 2.11.
In turn, `Nc1cccc(OC(=O)CNC(=O)c2ccccc2)c1` returned a logP of 1.3.
In the case of `CC(=O)NC1=C(Nc2ccccc2)C(=O)c2ccccc2C1=O` it was 1.73; in that of `CC(=O)c1ccc2c(c1)C(c1ccccc1F)=NCC(=O)N2`, 1.75; in that of `CN(C)/N=N/c1cc(C(N)=O)cc(C(N)=O)c1`, 0.22.
Molecule `Clc1cc(Cl)c(Cl)c(-c2ccc(Cl)c(Cl)c2Cl)c1` registered a logP of 7.39.
`COc1cc(Cc2cnc(N)nc2N)ccc1Nc1ccccc1` yielded a log partition coefficient (logP) of 3.42.
As for `CSc1nc(C)cc(C)n1`, the logP was 1.86.
`CSC1=NC(=O)C(=Cc2ccc([N+](=O)[O-])o2)S1`: the logP came to 1.41.
In turn, `CCOc1ncnc(NS(=O)(=O)c2ccc(N)cc2)c1OC` showed a logP of 1.18.
For `CC(=O)N(CCCl)c1ccc(CC(=O)O)cc1`, the logP is 1.2.
As to `N#Cc1cc[n+]([O-])cc1`, the lipophilicity (logP) is -0.94.
Regarding `Cc1cc2c(cc1Cc1cnc(N)nc1N)OCO2`, the log partition coefficient (logP) came to 1.89.
For `CN(C)/N=N/c1ccccc1Cl`, the lipophilicity (logP) worked out at 3.03.
As to `NC(=O)c1[nH]cnc1/N=N/N(CCO)CCO`, the lipophilicity (logP) was -1.09.
The same measure for `CC(C)CN(CC(C)C)C(=O)C=Cc1ccc2c(c1)OCO2`: 4.37.
In the case of `CCCC1(CC)C(=O)NC(=O)N(C)C1=O` (stereo not drawn), the lipophilicity (logP) was 1.65.
For `CC1=Nc2ccc(S(=O)(=O)N(C)C)cc2S(=O)(=O)N1`, the logP turned out to be 0.32.
Regarding `Oc1ccc(C(c2ccc(O)cc2)c2ccccn2)cc1`, the lipophilicity (logP) was found to be 2.84.
The same measure for `COc1ccc(Cc2ccccc2C(N)=O)cc1`: 1.63; for `COc1ccc(OC)c(NC2=NCCN2)c1`: 0.97; for `Clc1ccc(Cl)c(N=C2NCCN2)c1`: 2.04.
For the molecule `CCc1ccc(O[Si]23OCCN(CCO2)CCO3)cc1`, the logP amounted to 0.56.
The same measure for `CC1=Nc2ccc(C(F)(F)F)cc2S(=O)(=O)N1`: 1.51; for `O=C1C(O)=C(CC=C(Cl)Cl)C(=O)c2ccccc21`: 3.1.
`Nc1nc(N)nc(-c2cc(F)ccc2Cl)n1` showed a logP of 1.38.
As for `N#CCN(CC#N)N=O`, the lipophilicity (logP) was 0.04.
`O=C1CN=C(c2ccccc2Br)c2cc(Br)ccc2N1` showed a lipophilicity (logP) of 3.3.
Regarding `O=NN1CCC(=O)CC1`, the logP was -0.47.
For `CNC(=O)Oc1cccc(C(F)(F)F)c1`, the lipophilicity (logP) turned out to be 2.37.
The same measure for `CSC(C)=NOC(=O)N(C)SN(C)C(=O)N(C)C`: 1.2; for `CC(=O)Nc1c(C)c(C)c(O)c(C)c1C`: 0.95; for `O=C1NC(=O)C(=Cc2ccc([N+](=O)[O-])o2)S1`: 0.63.
In the case of `Nc1ncco1` it was -0.18; in that of `CSc1ccccc1/N=N/N(C)C`, 3.13; in that of `Nc1nc(N)nc(-c2cc(F)ccc2Br)n1`, 1.45.
Take `Cc1cccc2nccc(=O)n12`: the lipophilicity (logP) amounted to 0.74.
Molecule `CC(=O)NNC(=O)c1ccccc1N=NN(C)C` registered a logP of 1.18.
As for `CN1C(=O)CN=C(c2ccccc2F)c2cc(I)ccc21`, the logP came to 3.14.
Turning to `COc1ccccc1N1C(=O)CCC1=O`, the logP was -0.02.
`CCC1=Nc2cc(Cl)ccc2S(=O)(=O)N1`: the log partition coefficient (logP) came to 1.61.
In the case of `CCNC1CC2CC1c1ccccc12` (stereo not drawn) it was 2.72.
The same measure for `COc1cc(Cc2cnc(N)nc2N)cc(OC)c1C(C)(C)O`: 1.49; for `O=C(O)COc1ccc(N=Nc2ccccc2)cc1`: 2.99.
Turning to `CCN(CC)c1cc(N)[n+]([O-])c(N)n1`, the logP was 1.16.
The same measure for `COc1cc(OC)nc(-n2[nH]c(=O)cc2C)n1`: 1.16.
`CCCCCCCC[n+]1ccc(C)c(C)c1.[I-]` yielded a logP of -0.41.
As for `COc1cc(Cc2cnc(N)nc2N)ccc1C`, the lipophilicity (logP) came to 2.14.
`O=NN1CCCCCCC1` showed a logP of 1.48.
Take `Nc1ccccc1C(c1ccc(O)cc1)c1ccc(O)cc1`: the logP worked out at 3.16.
Consider `Nc1ccc(OC2OC(CO)C(O)C(O)C2O)cc1` (stereo not drawn), for which the logP was -2.67.
The molecule `C=C(C)C(=O)OC(C)C` returned a logP of 2.25.
For the molecule `CCN(CC)CC(=O)NC1c2ccccc2-c2ccccc21`, the log partition coefficient (logP) turned out to be 3.64.
The same measure for `CCOC(=O)C(=Cc1cccc(OC)c1)C(=O)OCC`: 3.18; for `O=S1(=O)NC(C2CC2)=Nc2cc(Cl)ccc21`: 1.98; for `O=C1CCCN1Cc1ccccc1`: 1.25.
The molecule `COc1ccc(CN(C)N=Nc2ccc(C(=O)O)cc2)cc1` had a logP of 4.43.
`Cc1ccc(N2C(N)=NC(N)=NC2(C)C)cc1` yielded a lipophilicity (logP) of 0.85.
For `CN(C)c1nnc(-c2ccccc2)c2ccccc12`, the logP amounted to 3.22.
`CCC(C)(Oc1ccc(Cl)cc1)C(=O)O` (stereo not drawn): the logP was found to be 2.9.
